# Literature values as cited in patent US7629342B2, “Azabicyclic heterocycles as cannabinoid receptor modulators” (Bristol-Myers Squibb Company, priority 2005, dated 2009).
# Legend:
# [1] = chronic administration for two weeks
# [2] = 16 week trial period, Phase IIb
# [3] = highest dose; relative to 14.8% for placebo
Structure (SMILES),body weight [1],body weight in human subjects [2],patients stayed abstinent from cigarette smoke [3]
Cc1c(C(=O)NN2CCCCC2)nn(-c2ccc(Cl)cc2Cl)c1-c1ccc(I)cc1 [AM-251],substantial body weight reduction,,
Cc1c(C(=O)NN2CCCCC2)nn(-c2ccc(Cl)cc2Cl)c1-c1ccc(Cl)cc1 [SR-141716],,dose-dependently reduced body weight,30.2%
